Source: patent EP0009655A1, “6-Amino substituted N-pyrrolyl-3-pyridazine amines, their preparation, and pharmaceutically antihypertensive compositions containing them” (priority 1978, dated 1980)

Columns and labels:
renal hypertensive dogs = experiment: Antihypertensive activity in conscious renal hypertensive dogs (systolic arterial blood pressure, indirect method on the tail); assay type: in vivo; conditions: for maximum systolic blood pressure drop / time of maximum systolic blood pressure drop / blood pressure drop after seven hours: dose of 2 mg/kg; for blood pressure drop after seven hours: seven hours after administration
Protocol: The antihypertensive activity of the compounds of the invention was shown in representative tests on spontaneous hypertensive rats and in renal hypertensive dogs. In representative experiments with renal hypertensive dogs, effective amounts(1 to 4 mg/kg) of compounds of examples 3, 4, 5, 6, 8, 13, 14 and 15 were administered p.o. to the conscious hypertensive animals. The systolic arterial blood pressure was measured by the indirect method on the tail before and 1, 3, 5 and 7 hours after treatment.
The drop of the systolic blood pressure ranged between 20 and 70 mm Hg, depending on the specific compound tested and on the time at which the blood pressure was observed. In general the antihypertensive effect started about 3 hours after treatment and the maximum effect was still persistent 7 hours after treatment.

[1] = tested on: spontaneous hypertensive rats (MHR: Milano hypertensive rats); experiment: Antihypertensive activity in spontaneous hypertensive rats (systolic blood pressure); assay type: in vivo; conditions: dose of 5 mg/kg
[2] = Acute toxicity, LD50 p.o.; conditions: mouse, in vivo, po

Row | Compound | drop of the systolic blood pressure (renal hypertensive dogs; 1 mg/kg p.o.) [mm Hg] | drop of the systolic blood pressure (renal hypertensive dogs; 4 mg/kg p.o.) [mm Hg] | maximum systolic blood pressure drop (renal hypertensive dogs) [mm Hg] | time of maximum systolic blood pressure drop (renal hypertensive dogs) | blood pressure drop after seven hours (renal hypertensive dogs) [mm Hg] | blood pressure drop [1] [mm Hg] | LD50 [2] [mg/kg]
1 | Cc1ccc(C)n1Nc1ccc(N2CCOCC2)nn1 [Example 3, N-(2,5-Dimethyl-1H-pyrrol-1-yl)-6-morpholino-3-pyridazineamine] | 50 | 70 | 52 | about three | 48 | 38 | ~800
2 | NNc1nncc2ccccc12 [hydralazine, 1-hydrazinophthalazine, reference compound] | – | – | 41 | about one | 29 | – | –
